Measured values from ChEMBL document CHEMBL1135171, “Discovery of potent and selective small molecule NPY Y5 receptor antagonists” (Bioorg Med Chem Lett, 2002).

Key:
[1] = target: T1, Neuropeptide Y receptor type 1 (Homo sapiens, UniProt P25929); assay: Tested for radioligand binding affinity against membranes from COS-7 cells transiently transfected with Neuropeptide Y receptor type 1; assay type: cell membranes
T1 sequence (P25929 whole entry): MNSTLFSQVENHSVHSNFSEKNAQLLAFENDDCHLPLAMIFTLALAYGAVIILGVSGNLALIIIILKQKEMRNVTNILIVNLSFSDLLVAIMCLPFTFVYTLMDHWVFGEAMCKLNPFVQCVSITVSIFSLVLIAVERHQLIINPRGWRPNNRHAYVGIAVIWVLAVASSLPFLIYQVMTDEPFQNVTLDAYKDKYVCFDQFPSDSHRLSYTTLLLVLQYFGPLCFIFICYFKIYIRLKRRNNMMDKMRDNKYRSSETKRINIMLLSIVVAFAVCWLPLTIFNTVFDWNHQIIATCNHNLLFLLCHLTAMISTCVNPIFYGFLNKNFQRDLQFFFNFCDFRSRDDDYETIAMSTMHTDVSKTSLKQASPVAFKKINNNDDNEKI

[2] = target: T2, Neuropeptide Y receptor type 5 (Homo sapiens, UniProt Q15761); assay: Tested for radioligand binding affinity against membranes from COS-7 cells transiently transfected with Neuropeptide Y receptor type 5; assay type: cell membranes
T2 sequence (Q15761 whole entry): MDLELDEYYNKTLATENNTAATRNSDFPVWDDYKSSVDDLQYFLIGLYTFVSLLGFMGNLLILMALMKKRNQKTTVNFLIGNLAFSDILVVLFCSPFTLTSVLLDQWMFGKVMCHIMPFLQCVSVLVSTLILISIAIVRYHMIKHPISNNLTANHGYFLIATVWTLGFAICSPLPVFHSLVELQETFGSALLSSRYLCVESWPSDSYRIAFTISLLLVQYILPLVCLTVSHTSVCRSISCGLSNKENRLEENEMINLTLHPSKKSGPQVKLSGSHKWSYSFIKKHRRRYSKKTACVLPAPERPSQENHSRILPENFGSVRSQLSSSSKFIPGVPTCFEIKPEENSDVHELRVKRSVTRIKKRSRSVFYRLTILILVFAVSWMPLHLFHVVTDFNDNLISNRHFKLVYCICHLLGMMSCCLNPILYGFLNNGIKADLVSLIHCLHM

D(2) dopamine receptor = D(2) dopamine receptor (Homo sapiens, UniProt P14416); assay: Binding affinity against cloned human Dopamine receptor D2 was evaluated
[3] = target: T3, Alpha-2C adrenergic receptor (Homo sapiens, UniProt P18825); assay: Bnding affinity against cloned human Alpha-2C adrenergic receptor was evaluated
T3 sequence (P18825 whole entry): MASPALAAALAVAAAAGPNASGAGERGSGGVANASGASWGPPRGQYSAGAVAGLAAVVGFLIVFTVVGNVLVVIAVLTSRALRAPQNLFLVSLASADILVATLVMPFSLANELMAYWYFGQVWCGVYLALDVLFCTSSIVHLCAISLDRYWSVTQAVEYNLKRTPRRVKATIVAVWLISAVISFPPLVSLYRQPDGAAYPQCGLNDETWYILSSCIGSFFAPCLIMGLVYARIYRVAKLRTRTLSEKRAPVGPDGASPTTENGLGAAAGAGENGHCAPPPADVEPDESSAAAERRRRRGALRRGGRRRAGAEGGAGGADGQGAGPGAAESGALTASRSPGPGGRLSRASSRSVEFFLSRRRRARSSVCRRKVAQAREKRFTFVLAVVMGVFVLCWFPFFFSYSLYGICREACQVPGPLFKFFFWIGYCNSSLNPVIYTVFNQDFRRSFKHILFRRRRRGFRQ

[4] = target: T4, Neuropeptide Y receptor type 1 (Rattus norvegicus, UniProt P21555); assay: Functional response of NPY to inhibit forskolin-stimulated cAMP in cells stably transfected with Neuropeptide Y receptor type 1
T4 sequence (P21555 whole entry): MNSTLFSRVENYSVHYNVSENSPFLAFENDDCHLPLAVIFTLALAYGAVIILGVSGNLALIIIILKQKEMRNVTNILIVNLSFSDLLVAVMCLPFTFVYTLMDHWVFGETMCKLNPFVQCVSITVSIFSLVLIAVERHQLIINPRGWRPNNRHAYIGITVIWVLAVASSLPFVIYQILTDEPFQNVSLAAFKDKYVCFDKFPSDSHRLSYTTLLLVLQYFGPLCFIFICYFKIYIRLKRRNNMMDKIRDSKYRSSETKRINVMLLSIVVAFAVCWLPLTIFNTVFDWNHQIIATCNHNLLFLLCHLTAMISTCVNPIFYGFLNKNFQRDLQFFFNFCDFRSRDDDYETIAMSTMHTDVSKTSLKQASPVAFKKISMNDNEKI

[5] = target: T5, Neuropeptide Y receptor type 5 (Rattus norvegicus, UniProt Q63634); assay: Functional response of NPY to inhibit forskolin-stimulated cAMP in cells stably transfected with rat Neuropeptide Y receptor type 5
T5 sequence (Q63634 whole entry): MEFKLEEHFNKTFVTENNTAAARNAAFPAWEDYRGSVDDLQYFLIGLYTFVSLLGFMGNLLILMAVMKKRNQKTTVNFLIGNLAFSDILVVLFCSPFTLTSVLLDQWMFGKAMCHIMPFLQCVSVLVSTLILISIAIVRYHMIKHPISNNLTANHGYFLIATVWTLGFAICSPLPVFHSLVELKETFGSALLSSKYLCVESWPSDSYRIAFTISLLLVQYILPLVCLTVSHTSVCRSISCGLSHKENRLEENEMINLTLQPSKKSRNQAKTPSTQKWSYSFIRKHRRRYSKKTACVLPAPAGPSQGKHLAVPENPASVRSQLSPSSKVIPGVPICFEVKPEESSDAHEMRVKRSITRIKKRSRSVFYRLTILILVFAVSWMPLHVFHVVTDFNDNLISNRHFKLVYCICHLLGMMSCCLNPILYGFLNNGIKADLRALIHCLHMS

Chain of D(2) dopamine receptor (P14416 whole entry): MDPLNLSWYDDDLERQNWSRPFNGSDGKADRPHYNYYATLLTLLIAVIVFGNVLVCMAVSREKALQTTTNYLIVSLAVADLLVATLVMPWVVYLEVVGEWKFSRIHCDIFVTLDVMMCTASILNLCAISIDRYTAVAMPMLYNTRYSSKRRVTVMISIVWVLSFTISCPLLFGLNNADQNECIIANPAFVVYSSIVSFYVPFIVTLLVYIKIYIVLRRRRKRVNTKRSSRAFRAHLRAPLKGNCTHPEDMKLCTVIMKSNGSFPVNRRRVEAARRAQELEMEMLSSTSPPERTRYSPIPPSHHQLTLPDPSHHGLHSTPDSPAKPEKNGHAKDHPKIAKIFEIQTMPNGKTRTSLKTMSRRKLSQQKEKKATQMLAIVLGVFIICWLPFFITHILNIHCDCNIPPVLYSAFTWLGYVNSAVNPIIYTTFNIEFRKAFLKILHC

| Compound | Ki [1] [nM] | Ki [2] [nM] | Ki (D(2) dopamine receptor) [nM] | Ki [3] [nM] | Ki [4] [nM] | Ki [5] [nM] |
| --- | --- | --- | --- | --- | --- | --- |
| Nc1ccccc1S(=O)(=O)NC[C@H]1CC[C@H](CNCC2CCc3ccccc3C2)CC1 (some centres undefined) | 17200 | 10 | – | – | – | – |
| O=[N+]([O-])c1ccccc1S(=O)(=O)NC[C@H]1CC[C@H](CNCC2CCc3ccccc3C2)CC1 (some centres undefined) | 16000 | 8 | 63 | 100 | 22000 | 18 |
| O=S(=O)(NC[C@H]1CC[C@H](CNCC2CCc3ccccc3C2)CC1)c1cccc2ccccc12 (some centres undefined) | 3550 | 11 | – | – | – | – |
| O=[N+]([O-])c1ccccc1S(=O)(=O)NC[C@H]1CC[C@H](CNCc2ccnc3ccccc23)CC1 | 48700 | 28 | – | – | – | – |

Results, then the compound that gave them:

| Ki [1] [nM] | Ki [2] [nM] | Ki (D(2) dopamine receptor) [nM] | Ki [3] [nM] | Ki [4] [nM] | Ki [5] [nM] | Compound |
| --- | --- | --- | --- | --- | --- | --- |
| 23700 | – | – | – | – | – | O=[N+]([O-])c1ccccc1S(=O)(=O)NC[C@H]1CC[C@H](CNCc2ccc3ccccc3n2)CC1 |
| 7300 | 123 | – | – | – | – | O=S(=O)(NCCCCCCNCc1ccc2ccccc2c1)c1ccc2ccccc2c1 |
| 14500 | 26 | – | – | – | – | O=S(=O)(NC[C@H]1CC[C@H](CNCc2cccc3ccccc23)CC1)c1ccccc1C(F)(F)F |
| 13000 | 10 | – | – | – | – | O=S(=O)(NC[C@H]1CC[C@H](CNCc2ccc3ccccc3c2)CC1)c1ccccc1C(F)(F)F |
